Measurements from US12624018B1, “Inhibitors of RIPK2 and medical uses thereof” (Odyssey Therapeutics, Inc., priority 2022, dated 2026).
Counter-ions that a name gives are not always drawn.

What was measured:
RIPK2 enzyme = molecular target: T1, RIPK2 enzyme (Homo sapiens, UniProt O43353); experiment: RIPK2 inhibition (ADP-Glo Kinase Assay); assay type: biochemical; conditions: RIPK2 5 nM, ATP 150 μM, MBP substrate, read-out: RIPK2 IC50
T1 construct: purchased Carna 09-128
Outline: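 Swine MBP substrate; compound and 5 nM RIPK2 first mixed for 30 min at room temperature; buffer pH 7.5 HEPES 50 mM with 10 mM MgCl2, 2 mM DTT, 1 mM EGTA, Brij-35, BSA.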

human NOD2 signaling = experiment: Inhibition of human NOD2 signaling in HEK-Blue-hNOD2 cells (L18-MDP stimulated, SEAP reporter); assay type: cell-based; conditions: Homo sapiens, HEK-Blue hNOD2, HEK-Blue-hNOD2 cells, NOD2 ligand stimulation, SEAP reporter; read-out: hNOD2 IC50
Outline: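 Read-out is SEAP absorbance at 620 nm after 3 h QUANTI-Blue development of supernatant from HEK293 cells carrying NOD2 and a SEAP reporter (12500/well). Cells got compound (10 points, 3-fold dilutions) and 0.5 ng/mL L18-MDP for 24 h at 37 °C; percent inhibition vs stimulated/unstimulated controls, 4-parameter IC50.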

T1 sequence (O43353 1-299 limits assumed): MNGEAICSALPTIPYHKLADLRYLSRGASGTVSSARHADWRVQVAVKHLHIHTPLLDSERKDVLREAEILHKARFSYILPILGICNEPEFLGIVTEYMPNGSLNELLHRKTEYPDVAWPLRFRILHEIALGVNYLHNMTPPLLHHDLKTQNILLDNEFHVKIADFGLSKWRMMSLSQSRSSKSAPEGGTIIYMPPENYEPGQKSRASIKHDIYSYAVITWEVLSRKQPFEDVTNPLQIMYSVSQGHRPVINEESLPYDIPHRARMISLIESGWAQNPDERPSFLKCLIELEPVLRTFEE

| SMILES | IC50 (RIPK2 enzyme) | IC50 (human NOD2 signaling) |
| --- | --- | --- |
| CNC(=O)c1cc2c(Oc3cc(F)c(CC(=O)Nc4cnn(C(C)(C)C)c4)cc3C)ccnc2cc1Cl [Compound 565, 4-(4-(2-((1-(tert-butyl)-1H-pyrazol-4-yl)amino)-2-oxoethyl)-5-fluoro-2-methylphenoxy)-7-chloro-N-methylquinoline-6-carboxamide] | < 2.5 nM | 6.9 nM |
| CNC(=O)Cc1ccc2nccc(Oc3cc(F)c(CC(=O)Nc4cnn(C(C)(C)C)c4)cc3C)c2c1 [Compound 567, N-(1-(tert-butyl)-1H-pyrazol-4-yl)-2-(2-fluoro-5-methyl-4-((6-(2-(methylamino)-2-oxoethyl)quinolin-4-yl)oxy)phenyl)acetamide formic acid salt] | < 2.5 nM | 9.8 nM |
| CNC(=O)C(C)(C)c1ccc2nccc(Oc3cc(F)c(CC(=O)Nc4cnn(C(C)(C)C)c4)cc3C)c2c1 [Compound 569, 2-(4-(4-(2-((1-(tert-butyl)-1H-pyrazol-4-yl)amino)-2-oxoethyl)-5-fluoro-2-methylphenoxy)quinolin-6-yl)-N,2-dimethylpropanamide] | < 2.5 nM | 10.4 nM |
| Cc1cc(CC(=O)Nc2cnn(C(C)(C)C)c2)c(F)cc1Oc1ccnc2ccc(C3(C(N)=O)CC3)cc12 [Compound 570, 1-(4-(4-(2-((1-(tert-butyl)-1H-pyrazol-4-yl)amino)-2-oxoethyl)-5-fluoro-2-methylphenoxy)quinolin-6-yl)cyclopropane-1-carboxamide] | 2.7 nM | 10.5 nM |
| CNC(=O)C1(c2ccc3nccc(Oc4cc(F)c(CC(=O)Nc5cnn(C(C)(C)C)c5)cc4C)c3c2)CC1 [Compound 571, 1-(4-(4-(2-((1-(tert-butyl)-1H-pyrazol-4-yl)amino)-2-oxoethyl)-5-fluoro-2-methylphenoxy)quinolin-6-yl)-N-methylcyclopropane-1-carboxamide formic acid salt] | 2.9 nM | 4.5 nM |
| CNC(=O)C(F)(F)c1ccc2nccc(Oc3cc(F)c(CC(=O)Nc4cnn(C(C)(C)C)c4)cc3C)c2c1 [Compound 573, 2-(4-(4-(2-((1-(tert-butyl)-1H-pyrazol-4-yl)amino)-2-oxoethyl)-5-fluoro-2-methylphenoxy)quinolin-6-yl)-2,2-difluoro-N-methylacetamide] | < 2.5 nM | 1 nM |
| [2H]C([2H])([2H])NC(=O)c1ccc2nccc(Oc3ccc(CC(=O)Nc4cnn(C(C)(C)C)c4)cc3C(F)F)c2c1 [Compound 574, 4-(4-(2-((1-(tert-butyl)-1H-pyrazol-4-yl)amino)-2-oxoethyl)-2-(difluoromethyl)phenoxy)-N-(methyl-d3)quinoline-6-carboxamide] | < 2.5 nM | 3.2 nM |
| CC(C)(C)n1cc(NC(=O)Cc2ccc(Oc3ccnc4cc(F)c(C(N)=O)cc34)c(C(F)F)c2)cn1 [Compound 575, 4-(4-(2-((1-(tert-butyl)-1H-pyrazol-4-yl)amino)-2-oxoethyl)-2-(difluoromethyl)phenoxy)-7-fluoroquinoline-6-carboxamide] | < 2.5 nM | 2.2 nM |
| CNC(=O)c1cc2c(Oc3ccc(CC(=O)Nc4cnn(C(C)(C)C)c4)cc3C(F)F)ccnc2cc1F [Compound 576, 4-(4-(2-((1-(tert-butyl)-1H-pyrazol-4-yl)amino)-2-oxoethyl)-2-(difluoromethyl)phenoxy)-7-fluoro-N-methylquinoline-6-carboxamide] | < 2.5 nM | 5.2 nM |
| [2H]C([2H])([2H])NC(=O)c1cc2c(Oc3ccc(CC(=O)Nc4cnn(C(C)(C)C)c4)cc3C(F)F)ccnc2cc1F [Compound 577, 4-(4-(2-((1-(tert-butyl)-1H-pyrazol-4-yl)amino)-2-oxoethyl)-2-(difluoromethyl)phenoxy)-7-fluoro-N-(methyl-d3)quinoline-6-carboxamide] | < 2.5 nM | 2 nM |
| COc1cc2nccc(Oc3ccc(CC(=O)Nc4cnn(C(C)(C)C)c4)cc3C(F)F)c2cc1C(N)=O [Compound 578, 4-(4-(2-((1-(tert-butyl)-1H-pyrazol-4-yl)amino)-2-oxoethyl)-2-(difluoromethyl)phenoxy)-7-methoxy-quinoline-6-carboxamide] | < 2.5 nM | 0.7 nM |
| CNC(=O)c1cc2c(Oc3ccc(CC(=O)Nc4cnn(C(C)(C)C)c4)cc3C(F)F)ccnc2cc1OC [Compound 579, 4-(4-(2-((1-(tert-butyl)-1H-pyrazol-4-yl)amino)-2-oxoethyl)-2-(difluoromethyl)phenoxy)-7-methoxy-N-methylquinoline-6-carboxamide] | < 2.5 nM | 0.8 nM |
| [2H]C([2H])([2H])NC(=O)c1cc2c(Oc3ccc(CC(=O)Nc4cnn(C(C)(C)C)c4)cc3C(F)F)ccnc2cc1OC [Compound 580, 4-(4-(2-((1-(tert-butyl)-1H-pyrazol-4-yl)amino)-2-oxoethyl)-2-(difluoromethyl)phenoxy)-7-methoxy-N-(methyl-d3)quinoline-6-carboxamide] | < 2.5 nM | 1.2 nM |
| [2H]C([2H])([2H])NC(=O)c1cc2c(Oc3c(C)cc(CC(=O)Nc4cnn(C(C)(C)C)c4)cc3Cl)ccnc2cc1F [Compound 586, 4-(4-(2-((1-(tert-butyl)-1H-pyrazol-4-yl)amino)-2-oxoethyl)-2-chloro-6-methylphenoxy)-7-fluoro-N-(methyl-d3)quinoline-6-carboxamide] | < 2.5 nM | 0.6 nM |
| Cc1cc(CC(=O)Nc2cnn(C34CC(C3)C4)c2)cc(C)c1Oc1ccnc2ccc(C(N)=O)cc12 [Compound 587, 4-(4-(2-((1-(bicyclo[1.1.1]pentan-1-yl)-1H-pyrazol-4-yl)amino)-2-oxoethyl)-2,6-dimethylphenoxy)quinoline-6-carboxamide] | < 2.5 nM | 28.6 nM |
| CNC(=O)c1ccc2nccc(Oc3c(C)cc(CC(=O)Nc4cnn(C56CC(C5)C6)c4)cc3C)c2c1 [Compound 588, 4-(4-(2-((1-(bicyclo[1.1.1]pentan-1-yl)-1H-pyrazol-4-yl)amino)-2-oxoethyl)-2,6-dimethylphenoxy)-N-methylquinoline-6-carboxamide] | < 2.5 nM | 36 nM |
| [2H]C([2H])([2H])NC(=O)c1ccc2nccc(Oc3c(C)cc(CC(=O)Nc4cnn(C56CC(C5)C6)c4)cc3C)c2c1 [Compound 589, 4-(4-(2-((1-(bicyclo[1.1.1]pentan-1-yl)-1H-pyrazol-4-yl)amino)-2-oxoethyl)-2,6-dimethylphenoxy)-N-(methyl-d3)quinoline-6-carboxamide] | < 2.5 nM | 48.6 nM |
| Cc1cc(CC(=O)Nc2cnn(C34CC(C3)C4)c2)cc(Cl)c1Oc1ccnc2ccc(C(N)=O)cc12 [Compound 590, 4-(4-(2-((1-(bicyclo[1.1.1]pentan-1-yl)-1H-pyrazol-4-yl)amino)-2-oxoethyl)-2-chloro-6-methylphenoxy)quinoline-6-carboxamide] | < 2.5 nM | 31.2 nM |
| CNC(=O)c1ccc2nccc(Oc3c(C)cc(CC(=O)Nc4cnn(C56CC(C5)C6)c4)cc3Cl)c2c1 [Compound 591, 4-(4-(2-((1-(bicyclo[1.1.1]pentan-1-yl)-1H-pyrazol-4-yl)amino)-2-oxoethyl)-2-chloro-6-methylphenoxy)-N-methylquinoline-6-carboxamide] | < 2.5 nM | 46.7 nM |
| [2H]C([2H])([2H])NC(=O)c1ccc2nccc(Oc3c(C)cc(CC(=O)Nc4cnn(C56CC(C5)C6)c4)cc3Cl)c2c1 [Compound 592, 4-(4-(2-((1-(bicyclo[1.1.1]pentan-1-yl)-1H-pyrazol-4-yl)amino)-2-oxoethyl)-2-chloro-6-methylphenoxy)-N-(methyl-d3)quinoline-6-carboxamide] | 2.8 nM | 80.2 nM |
| [2H]C([2H])([2H])C(n1cc(NC(=O)Cc2cc(C)c(Oc3ccnc4cc(F)c(C(=O)NC)cc34)cc2F)cn1)(C([2H])([2H])[2H])C([2H])([2H])[2H] [Compound 596, 7-fluoro-4-(5-fluoro-2-methyl-4-(2-((1-(2-(methyl-d3)propan-2-yl-1,1,1,3,3,3-d6)-1H-pyrazol-4-yl)amino)-2-oxoethyl)phenoxy)-N-methylquinoline-6-carboxamide] | < 2.5 nM | 0.7 nM |
| [2H]C([2H])([2H])C(n1cc(NC(=O)Cc2ccc(Oc3ccnc4ccc(S(C)(=O)=O)cc34)c(C)c2)cn1)(C([2H])([2H])[2H])C([2H])([2H])[2H] [Compound 597, 2-(3-methyl-4-((6-(methylsulfonyl)quinolin-4-yl)oxy)phenyl)-N-(1-(2-(methyl-d3)propan-2-yl-1,1,1,3,3,3-d6)-1H-pyrazol-4-yl)acetamide] | < 2.5 nM | 1.3 nM |
| Cc1cc(CC(=O)Nc2cnn(C(C)(C)C)c2)cc(F)c1Oc1ccnc2cc(F)c(C(N)=O)cc12 [Compound 598, 4-(4-(2-((1-(tert-butyl)-1H-pyrazol-4-yl)amino)-2-oxoethyl)-2-fluoro-6-methylphenoxy)-7-fluoroquinoline-6-carboxamide] | < 2.5 nM | 2.3 nM |
| CNC(=O)c1cc2c(Oc3c(C)cc(CC(=O)Nc4cnn(C(C)(C)C)c4)cc3F)ccnc2cc1F [Compound 599, 4-(4-(2-((1-(tert-butyl)-1H-pyrazol-4-yl)amino)-2-oxoethyl)-2-fluoro-6-methylphenoxy)-7-fluoro-N-methylquinoline-6-carboxamide] | < 2.5 nM | 1.7 nM |
| [2H]C([2H])([2H])NC(=O)c1cc2c(Oc3c(C)cc(CC(=O)Nc4cnn(C(C)(C)C)c4)cc3F)ccnc2cc1F [Compound 600, 4-(4-(2-((1-(tert-butyl)-1H-pyrazol-4-yl)amino)-2-oxoethyl)-2-fluoro-6-methylphenoxy)-7-fluoro-N-(methyl-d3)quinoline-6-carboxamide] | < 2.5 nM | 1.4 nM |
